As a reminder, the DC50 is the concentration giving 50% degradation. The low end stands for degradation at low concentration, the high end for degradation only at high concentration. A word on the Dmax: it is the greatest extent of degradation seen.

Test [1] has as its target T1, AR (AR-full length) in LNCaP cells (Homo sapiens, UniProt P10275, T878A).
T1 construct: the prostate cancer cell line LNCaP (expressing AR-full length); endogenous in cells; host or cells: LNCaP
As to the kind of experiment: LNCaP Androgen Receptor Imaging Assay (immunofluorescence of endogenous nuclear AR). The class given is cell-based. The conditions noted are these: 24 h incubation; for DC50: concentration giving 50% of maximum degradation of AR per curve fit, single experiment or average of two or more; for Dmax: LNCaP, maximum degradation observed, normalized as % of positive control (prior art AR PROTAC at 3 μM). The procedure, abridged:
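Endogenous nuclear AR level was imaged by immunofluorescence after 24 h compound exposure (12-point dose response, 0.3% DMSO, 37° C./5% CO2) in LNCaP cells. Data were expressed as % of a 3 μM prior-art AR PROTAC control and fitted (bell fit where a hook appeared) to give DC50 and maximum degradation Dmax.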

Test [2] deals with T2, AR (L702H) in LNCaP cells (Homo sapiens, UniProt P10275, L702H/T878A).
T2 construct: engineered to introduce the mutation L702H into the AR gene using CRISPR/Cas9; endogenous in cells; host or cells: LNCaP cells edited by CRISPR/Cas9 at the AR gene
T2 sequence (P10275 whole entry L702H/T878A): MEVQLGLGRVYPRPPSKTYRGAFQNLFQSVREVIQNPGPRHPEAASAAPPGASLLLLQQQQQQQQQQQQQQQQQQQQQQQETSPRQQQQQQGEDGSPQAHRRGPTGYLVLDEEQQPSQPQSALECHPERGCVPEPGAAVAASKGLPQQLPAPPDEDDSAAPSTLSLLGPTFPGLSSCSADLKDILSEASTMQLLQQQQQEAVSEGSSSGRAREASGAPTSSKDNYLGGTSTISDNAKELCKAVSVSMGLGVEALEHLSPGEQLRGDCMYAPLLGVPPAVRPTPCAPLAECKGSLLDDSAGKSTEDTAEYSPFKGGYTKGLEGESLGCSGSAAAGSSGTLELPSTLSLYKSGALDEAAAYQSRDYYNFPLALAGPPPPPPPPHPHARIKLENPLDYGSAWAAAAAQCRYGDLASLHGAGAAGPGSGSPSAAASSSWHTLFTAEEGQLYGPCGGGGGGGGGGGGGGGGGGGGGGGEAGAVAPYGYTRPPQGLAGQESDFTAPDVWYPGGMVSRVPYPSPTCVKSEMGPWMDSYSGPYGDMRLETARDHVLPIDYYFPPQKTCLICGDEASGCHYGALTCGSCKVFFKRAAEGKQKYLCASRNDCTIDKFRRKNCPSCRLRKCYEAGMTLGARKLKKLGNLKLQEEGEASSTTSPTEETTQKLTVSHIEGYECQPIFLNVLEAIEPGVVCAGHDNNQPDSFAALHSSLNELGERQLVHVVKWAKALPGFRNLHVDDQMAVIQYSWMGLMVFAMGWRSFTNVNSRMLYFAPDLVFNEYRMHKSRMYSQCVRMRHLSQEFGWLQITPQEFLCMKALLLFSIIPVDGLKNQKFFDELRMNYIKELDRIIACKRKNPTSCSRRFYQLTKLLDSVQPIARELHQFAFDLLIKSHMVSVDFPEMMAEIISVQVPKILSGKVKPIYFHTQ
T2 sequence (Q96SW2 whole entry partner): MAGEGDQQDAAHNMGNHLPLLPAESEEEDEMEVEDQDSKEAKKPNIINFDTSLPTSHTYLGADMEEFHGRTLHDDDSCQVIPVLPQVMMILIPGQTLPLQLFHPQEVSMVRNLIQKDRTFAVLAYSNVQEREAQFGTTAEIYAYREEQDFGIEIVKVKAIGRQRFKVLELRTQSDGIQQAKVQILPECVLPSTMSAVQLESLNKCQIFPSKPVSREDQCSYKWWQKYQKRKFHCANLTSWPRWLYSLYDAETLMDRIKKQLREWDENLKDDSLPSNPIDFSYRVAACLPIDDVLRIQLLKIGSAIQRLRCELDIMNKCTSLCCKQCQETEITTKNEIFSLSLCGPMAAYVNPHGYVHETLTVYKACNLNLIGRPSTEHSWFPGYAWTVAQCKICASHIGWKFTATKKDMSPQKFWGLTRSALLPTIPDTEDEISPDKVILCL
As to the kind of experiment: LNCaP Androgen Receptor L702H Imaging Assay (LNCaP cells engineered by CRISPR/Cas9). The class given is cell-based. To be noted: LNCaP cells with AR L702H mutation, 24 h incubation; for DC50: concentration giving 50% of maximum degradation of AR (L702H) per curve fit; for Dmax: LNCaP, maximum degradation observed, normalized as % of positive control. The procedure, abridged:
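AR (L702H) degradation, expressed as DC50 and Dmax from curve fits normalized to a positive degrader control, was measured by high-content imaging of anti-AR immunofluorescence. The engineered LNCaP line was dosed over 12 concentrations for 24 h, 0.3% DMSO final, before PFA fixation.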

Structures are written as SMILES.

T1 sequence (P10275 whole entry T878A): as the sequence (P10275 whole entry L702H/T878A) above, with H702L counted along it
T1 sequence (Q96SW2 whole entry partner): as the sequence (Q96SW2 whole entry partner) above

On to `COc1cc(N2CCN(CC3CCN(c4ccc(C5CCN(c6ccc(C)c7c(C#N)n[nH]c67)CC5)cc4)CC3)CC2)cc2c1C(=O)N(C1CCC(=O)NC1=O)C2` (stereo not drawn) [Example 149, 7-(4-{4-[4-({4-[2-(2,6-Dioxopiperidin-3-yl)-7-methoxy-1-oxo-2,3-dihydro-1H-isoindol-5-yl]piperazin-1-yl}methyl)piperidin-1-yl]phenyl}piperidin-1-yl)-4-methyl-1H-indazole-3-carbonitrile], for which the DC50 in test [1] is 20 nM; in test [2] it was 60 nM. The results for the Dmax in test [1] and in test [2] were 96% and 91%, respectively.

On to `N#Cc1n[nH]c2c(N3CCC(NC(=O)c4ccc(N5CCC(CN6CCC(n7ccc8c(N9CCC(=O)NC9=O)cccc87)CC6)CC5)cc4F)CC3)ccc(Cl)c12` [Example 152, N-[1-(4-Chloro-3-cyano-1H-indazol-7-yl)piperidin-4-yl]-4-[4-({4-[4-(2,4-dioxo-1,3-diazinan-1-yl)-1H-indol-1-yl]piperidin-1-yl}methyl)piperidin-1-yl]-2-fluorobenzamide], for which, in test [1], the DC50 was 2 nM and the Dmax stood at 105%. In addition, in test [2], the DC50 came to 2 nM and the Dmax is 108%.

As to `N#Cc1c[nH]c2c(N3CCC(NC(=O)c4ccc(N5CCC(CN6CCC(n7ccc8cc(N9CCC(=O)NC9=O)ccc87)CC6)CC5)cc4F)CC3)ccc(Cl)c12` [Example 153, N-[1-(4-Chloro-3-cyano-1H-indol-7-yl)piperidin-4-yl]-4-[4-({4-[5-(2,4-dioxo-1,3-diazinan-1-yl)-1H-indol-1-yl]piperidin-1-yl}methyl)piperidin-1-yl]-2-fluorobenzamide], in test [1], the DC50 stood at 2 nM and the Dmax is 109%. In addition, in test [2], it took 3 nM to reach half-maximal degradation (DC50) and the Dmax amounted to 114%.

In the case of `N#Cc1c[nH]c2c(N3CCC(NC(=O)c4ccc(N5CCC(CN6CCN(c7ccc(C(=O)NC8CCC(=O)NC8=O)c(F)c7)CC6)CC5)cc4F)CC3)ccc(Cl)c12` (stereo not drawn) [Example 154], in test [1], the DC50 came to 4 nM and the Dmax worked out at 81%. In test [2], the DC50 came out at 9 nM and the Dmax was 79%.

In the case of `N#Cc1c[nH]c2c(N3CCC(NC(=O)c4ccc(N5CCC(CN6Cc7cc8c(cc7C6)C(=O)N(C6CCC(=O)NC6=O)C8=O)CC5)cc4F)CC3)ccc(Cl)c12` (stereo not drawn) [Example 155, N-[1-(4-Chloro-3-cyano-1H-indol-7-yl)piperidin-4-yl]-4-(4-{[6-(2,6-dioxopiperidin-3-yl)-5,7-dioxo-3,5,6,7-tetrahydropyrrolo[3,4-f]isoindol-2(1H)-yl]methyl}piperidin-1-yl)-2-fluorobenzamide], the figures for the DC50 in test [1] and in test [2] were 4 nM and 17 nM, respectively. The Dmax in test [1] stood at 80%; in test [2], 82%.

With `Cn1c(C2CCN(CC3CCN(c4ccc(C(=O)NC5CCN(c6ccc(Cl)c7c(C#N)c[nH]c67)CC5)c(F)c4)CC3)CC2)cc2cc(F)c(N3CCC(=O)NC3=O)cc21` [Example 156, N-[1-(4-Chloro-3-cyano-1H-indol-7-yl)piperidin-4-yl]-4-[4-({4-[6-(2,4-dioxo-1,3-diazinan-1-yl)-5-fluoro-1-methyl-1H-indol-2-yl]piperidin-1-yl}methyl)piperidin-1-yl]-2-fluorobenzamide], in test [1], the DC50 came out at 5 nM and the Dmax turned out to be 104%. In addition, in test [2], it took 10 nM to reach half-maximal degradation (DC50) and the Dmax was found to be 105%.

As to `Cn1c(=O)n(C2CCC(=O)NC2=O)c2cccc(N3CCN(CC4CCN(c5ccc(C(=O)NC6CCN(c7ccc(Cl)c8c(C#N)c[nH]c78)CC6)c(F)c5)CC4)CC3)c21` (stereo not drawn) [Example 157, N-[1-(4-Chloro-3-cyano-1H-indol-7-yl)piperidin-4-yl]-4-[4-({4-[1-(2,6-dioxopiperidin-3-yl)-3-methyl-2-oxo-2,3-dihydro-1H-benzimidazol-4-yl]piperazin-1-yl}methyl)piperidin-1-yl]-2-fluorobenzamide], in test [1], the DC50 came out at 3 nM and the Dmax amounted to 97%. For the same molecule, in test [2], the DC50 worked out at 4 nM and the Dmax came to 96%.

Consider `Cn1c(C2CCN(CC3CCN(c4ccc(C(=O)NC5CCN(c6ccc(Cl)c7c(C#N)c[nH]c67)CC5)c(F)c4)CC3)CC2)cc2ccc(N3CCC(=O)NC3=O)cc21` [Example 158, N-[1-(4-Chloro-3-cyano-1H-indol-7-yl)piperidin-4-yl]-4-[4-({4-[6-(2,4-dioxo-1,3-diazinan-1-yl)-1-methyl-1H-indol-2-yl]piperidin-1-yl}methyl)piperidin-1-yl]-2-fluorobenzamide], for which, in test [1], the DC50 amounted to 1 nM and the Dmax came to 104%. Besides, in test [2], the DC50 came to 7 nM and the Dmax turned out to be 107%.

In the case of `N#Cc1c[nH]c2c(N3CCC(NC(=O)c4ccc(N5CCC(CN6CCN(c7ccc8c(c7)CN(C7CCC(=O)NC7=O)C8=O)CC6)CC5)cc4F)CC3)ccc(Cl)c12` (stereo not drawn) [Example 159, N-[1-(4-Chloro-3-cyano-1H-indol-7-yl)piperidin-4-yl]-4-[4-({4-[2-(2,6-dioxopiperidin-3-yl)-1-oxo-2,3-dihydro-1H-isoindol-5-yl]piperazin-1-yl}methyl)piperidin-1-yl]-2-fluorobenzamide], in test [1], it took 2 nM to reach half-maximal degradation (DC50) and the Dmax was determined as 101%. For the same molecule, in test [2], half-maximal degradation (DC50) was put at 3 nM and the Dmax was found to be 106%.

In the case of `N#Cc1c[nH]c2c(N3CCC(NC(=O)c4ccc(N5CCC(CN6CCC(n7ccc8c(N9CCC(=O)NC9=O)cccc87)CC6)CC5)cc4F)CC3)ccc(Cl)c12` [Example 160, N-[1-(4-Chloro-3-cyano-1H-indol-7-yl)piperidin-4-yl]-4-[4-({4-[4-(2,4-dioxo-1,3-diazinan-1-yl)-1H-indol-1-yl]piperidin-1-yl}methyl)piperidin-1-yl]-2-fluorobenzamide], in test [1], the DC50 is 1 nM and the Dmax came out at 104%. In test [2], it took 4 nM to reach half-maximal degradation (DC50) and the Dmax came out at 105%.

Turning to `N#Cc1c[nH]c2c(N3CCC(NC(=O)c4ccc(N5CCC(CN6CCN(c7cc8c(cc7F)C(=O)N(C7CCC(=O)NC7=O)C8=O)CC6)CC5)cc4F)CC3)ccc(Cl)c12` (stereo not drawn) [Example 161, N-[1-(4-Chloro-3-cyano-1H-indol-7-yl)piperidin-4-yl]-4-[4-({4-[2-(2,6-dioxopiperidin-3-yl)-6-fluoro-1,3-dioxo-2,3-dihydro-1H-isoindol-5-yl]piperazin-1-yl}methyl)piperidin-1-yl]-2-fluorobenzamide], in test [1], the DC50 came to 7 nM and the Dmax came to 95%. Moreover, in test [2], the DC50 is 20 nM and the Dmax came to 98%.

With `N#Cc1cc(N2CCC(CN3CCC(n4ccc5c(N6CCC(=O)NC6=O)cccc54)CC3)CC2)ccc1C(=O)NC1CCN(c2ccc(Cl)c3c(C#N)c[nH]c23)CC1` [Example 162, N-[1-(4-Chloro-3-cyano-1H-indol-7-yl)piperidin-4-yl]-2-cyano-4-[4-({4-[4-(2,4-dioxo-1,3-diazinan-1-yl)-1H-indol-1-yl]piperidin-1-yl}methyl)piperidin-1-yl]benzamide], the DC50 in test [1] and in test [2] was 1 nM in each case. Further, the Dmax in test [1] was determined as 106%; in test [2], 110%.

Consider `Cc1cc(N2CCC(CN3CCC(n4ccc5c(N6CCC(=O)NC6=O)cccc54)CC3)CC2)cc(F)c1C(=O)NC1CCN(c2ccc(Cl)c3c(C#N)c[nH]c23)CC1` [Example 163, N-[1-(4-Chloro-3-cyano-1H-indol-7-yl)piperidin-4-yl]-4-[4-({4-[4-(2,4-dioxo-1,3-diazinan-1-yl)-1H-indol-1-yl]piperidin-1-yl}methyl)piperidin-1-yl]-2-fluoro-6-methylbenzamide], for which the DC50 was determined as 1 nM in test [1] and 2 nM in test [2]. In addition, the Dmax in test [1] amounted to 107%; in test [2], 113%.

For `Cc1cc(C(=O)NC2CCN(c3ccc(Cl)c4c(C#N)c[nH]c34)CC2)ccc1N1CCC(CN2CCC(n3ccc4c(N5CCC(=O)NC5=O)cccc43)CC2)CC1` [Example 164, N-[1-(4-Chloro-3-cyano-1H-indol-7-yl)piperidin-4-yl]-4-[4-({4-[4-(2,4-dioxo-1,3-diazinan-1-yl)-1H-indol-1-yl]piperidin-1-yl}methyl)piperidin-1-yl]-3-methylbenzamide], in test [1], the DC50 came to 2 nM and the Dmax amounted to 108%. Also, in test [2], the DC50 stood at 2 nM and the Dmax was found to be 114%.

As to `N#Cc1cc(C(=O)NC2CCN(c3ccc(Cl)c4c(C#N)c[nH]c34)CC2)ccc1N1CCC(CN2CCC(n3ccc4c(N5CCC(=O)NC5=O)cccc43)CC2)CC1` [Example 165, N-[1-(4-Chloro-3-cyano-1H-indol-7-yl)piperidin-4-yl]-3-cyano-4-[4-({4-[4-(2,4-dioxo-1,3-diazinan-1-yl)-1H-indol-1-yl]piperidin-1-yl}methyl)piperidin-1-yl]benzamide], in test [1], half-maximal degradation (DC50) was put at 2 nM and the Dmax is 106%. Besides, in test [2], the DC50 is 2 nM and the Dmax worked out at 115%.

The values are drawn from US20260274832A1, “COMPOUNDS AND THEIR USE IN TREATING CANCER” (ASTRAZENECA AB, priority 2023, published 2026).
